Key:
[1] = test system: learned conditioned avoidance behavior; experiment: conditioned avoidance (lever press to avoid electric foot shock) in rats; type: in vivo; conditions: Rattus norvegicus, oral, read-out: oral dose that disrupts avoidance behavior, e.g. decreases avoidance responses
Protocol: (§1) Each lever press postpones the shock for 30 seconds. Whenever the animal fails to press the lever once within said period, brief (0.5 sec.) shocks are delivered at 15 second intervals until the animal again presses the lever. Under control conditions the animals press the lever at a moderately steady rate and seldom receive more than five or six shocks during a 25-minute (rats) and up to 4-hour experimental session. Said compounds are administered to the animals 30, 90, 210 minutes prior to the experimental session, and block the learned conditioned avoidance behavior, manifested by a decrease in avoidance responding with a marked increase in shocks taken by the animal. Both the avoidance responses and failures (shocks received) are recorded separately for evaluation.

[2] = test system: learned conditioned avoidance behavior; experiment: conditioned avoidance (lever press to avoid electric foot shock) in monkeys; type: in vivo, squirrel monkeys; conditions: Primates, oral, read-out: oral dose that disrupts avoidance behavior, e.g. decreases avoidance responses
Protocol: as §1

Structure (SMILES): CN1CCN(C2=Nc3ccccc3Cc3nccn32)CC1 [example 1, 5-(4-methyl-1-piperazinyl)-11H-imidazo[1,2-c][1,3]benzodiazepine]
- minimal effective dose [1]: ≤ 50 mg/kg
- minimal effective dose [2]: ≤ 50 mg/kg

— US4460587A, “5-Diazacycloalkyl imidazo[1,2-c][1,3]benzodiazepines” (Ciba-Geigy Corporation, priority 1982, dated 1984)
